{
  "source": "patent US20260234136A1",
  "about": "“ISOXAZOLIDINES AS RIPK1 INHIBITORS AND USE THEREOF” (GENZYME CORPORATION, priority 2023, published 2026)",
  "data": [
    {"system": "U937 cells", "assay": "Cellular assay in U937 cells to measure the activity of RIPK1-inhibitors on cell death (necroptosis)", "type": "cell-based", "settings": "Homo sapiens, U-937, 50 μM zVAD.fmk and 100 ng/ml recombinant human TNFα, overnight (18 to 24 hrs), MTS readout", "procedure": "Absorbance of formazan was read at 490 nm. The inhibitory activity of the test compound was quantified in a concentration response curve (CRC) experiment.\nCompounds were obtained as 10 mM stock solutions and were diluted 1 to 10 volumes with DMSO to yield a 1 mM solution. From this solution 2 μl were diluted with 998 μl growth medium.\nU937 cells were cultured in RPMI1640 Glutamax and 10% heat inactivated FBS. […] 50 μl of compound dilutions, as described in Cellular assay in U937 cells, were added and the cell suspension incubated overnight (18 to 24 hrs) at 37° C., 5% CO2 in a humidified atmosphere (95% rH).\nCellTiter 96 Aqueous reagent was mixed (100 μl PMS (phenazine methosulfate) solution/2 ml MTS (3-(4,5-[…])-5-(3-carboxymethoxyphenyl)-2-(4-sulfophenyl)-2H-tetrazolium, inner salt) solution) and 20 μl were added per well. After 4 hrs incubation at 37° C. (5% CO2 95% rH) optical density was measured at 490 nm on a microplate reader (Tecan Infinite M1000).\nThe % inhibition is expressed as percentage of the maximal inhibition value obtained in the absence of TNFα/zVAD.fmc.", "units": {"IC50": "nM"}, "values": [
      {"smiles": "Cc1ncc([C@@H]2CCON2C(=O)C2CCN(c3nccc(C4CCO4)n3)CC2)cc1F", "note": "(single isomer, unassigned) [Example 98]", "IC50": 269},
      {"smiles": "O=C(C1CCN(c2cc(-c3cccnc3)ncn2)CC1)N1OCC[C@H]1c1cncc(F)c1", "note": "[Example 1, (S)-(3-(5-fluoropyridin-3-yl)isoxazolidin-2-yl)(1-(6-(pyridin-3-yl)pyrimidin-4-yl)piperidin-4-yl)methanone]", "IC50": 37},
      {"smiles": "O=C1OCCN1c1nc(N2CCC(C(=O)N3OCC[C@H]3c3cnccn3)CC2)ncc1F", "note": "[Example 5, 3-[5-fluoro-2-[4-[(3S)-3-pyrazin-2-ylisoxazolidine-2-carbonyl]-1-piperidyl]pyrimidin-4-yl]oxazolidin-2-one]", "IC50": 5},
      {"smiles": "Cc1nc([C@@H]2CCON2C(=O)C2CCN(c3cc(-n4ccnc4C)ncn3)CC2)cs1", "note": "[Example 7, [1-[6-(2-methylimidazol-1-yl)pyrimidin-4-yl]-4-piperidyl]-[(3S)-3-(2-methylthiazol-4-yl)isoxazolidin-2-yl]methanone]", "IC50": 9},
      {"smiles": "Cc1ccc([C@@H]2CCON2C(=O)C2CCN(c3ncc(F)c(-n4cccn4)n3)CC2)cn1", "note": "[Example 10, [1-(5-fluoro-4-pyrazol-1-yl-pyrimidin-2-yl)-4-piperidyl]-[(3S)-3-(6-methyl-3-pyridyl)isoxazolidin-2-yl]methanone]", "IC50": 4},
      {"smiles": "O=C(C1CCN(c2nc(-c3ncco3)ncc2F)CC1)N1OCC[C@H]1c1cnccn1", "note": "[Example 13, [1-(5-fluoro-2-oxazol-2-yl-pyrimidin-4-yl)-4-piperidyl]-[(3S)-3-pyrazin-2-ylisoxazolidin-2-yl]methanone]", "IC50": 27},
      {"smiles": "Cc1ccc([C@@H]2CCON2C(=O)C2CCN(c3nccc(-c4ccnn4C)n3)CC2)cn1", "note": "[Example 15, [1-[4-(2-methylpyrazol-3-yl)pyrimidin-2-yl]-4-piperidyl]-[(3S)-3-(6-methyl-3-pyridyl)isoxazolidin-2-yl]methanone]", "IC50": 1},
      {"smiles": "Cc1cnn(-c2cc(N3CCC(C(=O)N4OCC[C@H]4c4ccc(C)nc4)CC3)ncn2)c1", "note": "[Example 17, [1-[6-(4-methylpyrazol-1-yl)pyrimidin-4-yl]-4-piperidyl]-[(3S)-3-(6-methyl-3-pyridyl)isoxazolidin-2-yl]methanone]", "IC50": 39},
      {"smiles": "Cc1ccc([C@@H]2CCON2C(=O)C2CCN(c3cc(-c4ccnn4C)ncn3)CC2)cn1", "note": "[Example 18, [1-[6-(2-methylpyrazol-3-yl)pyrimidin-4-yl]-4-piperidyl]-[(3S)-3-(6-methyl-3-pyridyl)isoxazolidin-2-yl]methanone]", "IC50": 70},
      {"smiles": "Cc1cn(-c2nc(N3CCC(C(=O)N4OCC[C@H]4c4cnccn4)CC3)ncc2F)c(C)n1", "note": "[Example 22, [1-[4-(2,4-dimethylimidazol-1-yl)-5-fluoro-pyrimidin-2-yl]-4-piperidyl]-[(3S)-3-pyrazin-2-ylisoxazolidin-2-yl]methanone]", "IC50": 2},
      {"smiles": "Cc1nccn1-c1ncnc(N2CCC(C(=O)N3OCC[C@H]3c3cnccn3)CC2)n1", "note": "[Example 26, (S)-(1-(4-(2-methyl-1H-imidazol-1-yl)-1,3,5-triazin-2-yl)piperidin-4-yl)(3-(pyrazin-2-yl)isoxazolidin-2-yl)methanone]", "IC50": 5},
      {"smiles": "O=C(C1CCN(c2ncc(F)c(-c3cncs3)n2)CC1)N1OCC[C@H]1c1cnccn1", "note": "[Example 27, (S)-(1-(5-fluoro-4-(thiazol-5-yl)pyrimidin-2-yl)piperidin-4-yl)(3-(pyrazin-2-yl)isoxazolidin-2-yl)methanone]", "IC50": 1},
      {"smiles": "Cn1nccc1-c1cc(N2CCC(C(=O)N3OCC[C@H]3c3cnccn3)CC2)ncn1", "note": "[Example 28, (S)-(1-(6-(1-methyl-1H-pyrazol-5-yl)pyrimidin-4-yl)piperidin-4-yl)(3-(pyrazin-2-yl)isoxazolidin-2-yl)methanone]", "IC50": 43},
      {"smiles": "O=C(C1CCN(c2ncc(F)c(-n3cccn3)n2)CC1)N1OCC[C@H]1c1cnccn1", "note": "[Example 32, (S)-(1-(5-fluoro-4-(1H-pyrazol-1-yl)pyrimidin-2-yl)piperidin-4-yl)(3-(pyrazin-2-yl)isoxazolidin-2-yl)methanone]", "IC50": 1},
      {"smiles": "Cc1ccc([C@@H]2CCON2C(=O)C2CCN(c3ncnc(-n4ccnc4C)n3)CC2)cn1", "note": "[Example 35, [1-[4-(2-methylimidazol-1-yl)-1,3,5-triazin-2-yl]piperidin-4-yl]-[(3S)-3-(6-methylpyridin-3-yl)-1,2-oxazolidin-2-yl]methanone]", "IC50": 2},
      {"smiles": "Cc1cncc([C@@H]2CCON2C(=O)C2CCN(c3nccc(N4CCOC4=O)n3)CC2)c1", "note": "[Example 36, 3-[2-[4-[(3S)-3-(5-methyl-3-pyridyl)isoxazolidine-2-carbonyl]-1-piperidyl]pyrimidin-4-yl]oxazolidin-2-one]", "IC50": 25},
      {"smiles": "Cn1nccc1-c1cc(N2CC[C@@H](C(=O)N3OCC[C@H]3c3cnccn3)C3(CC3)C2)ncn1", "note": "[Example 39, [(8R)-5-[6-(2-methylpyrazol-3-yl)pyrimidin-4-yl]-5-azaspiro[2.5]octan-8-yl]-[(3S)-3-pyrazin-2-yl-1,2-oxazolidin-2-yl]methanone]", "IC50": 20},
      {"smiles": "Cc1nc([C@@H]2CCON2C(=O)[C@@H]2CCN(c3cc(-c4ncnn4C)ncn3)CC23CC3)cs1", "note": "[Example 41, [(3S)-3-(2-methyl-1,3-thiazol-4-yl)-1,2-oxazolidin-2-yl]-[(8R)-5-[6-(2-methyl-1,2,4-triazol-3-yl)pyrimidin-4-yl]-5-azaspiro[2.5]octan-8-yl]methanone]", "IC50": 44},
      {"smiles": "Cc1ncc([C@@H]2CCON2C(=O)C2CCN(c3cc(-c4ncnn4C)ncn3)CC2)cc1F", "note": "[Example 49, [(3S)-3-(5-fluoro-6-methylpyridin-3-yl)-1,2-oxazolidin-2-yl]-[1-[6-(2-methyl-1,2,4-triazol-3-yl)pyrimidin-4-yl]piperidin-4-yl]methanone]", "IC50": 15},
      {"smiles": "Cc1cncc([C@@H]2CCON2C(=O)C2CCN(c3nccc(N4CCC5(CC5)C4=O)n3)CC2)c1", "note": "[Example 51, 5-[2-[4-[(3S)-3-(5-methylpyridin-3-yl)-1,2-oxazolidine-2-carbonyl]piperidin-1-yl]pyrimidin-4-yl]-5-azaspiro[2.4]heptan-4-one]", "IC50": 26},
      {"smiles": "Cc1nc([C@@H]2CCON2C(=O)C2CCN(c3nccc(N4CCC5(CC5)C4=O)n3)CC2)co1", "note": "[Example 54, 5-[2-[4-[(3S)-3-(2-methyl-1,3-oxazol-4-yl)-1,2-oxazolidine-2-carbonyl]piperidin-1-yl]pyrimidin-4-yl]-5-azaspiro[2.4]heptan-4-one]", "IC50": 51},
      {"smiles": "Cc1cnc([C@@H]2CCON2C(=O)C2CCN(c3nccc(N4CCCC4=O)n3)CC2)cn1", "note": "[Example 55, 1-[2-[4-[(3S)-3-(5-methylpyrazin-2-yl)-1,2-oxazolidine-2-carbonyl]piperidin-1-yl]pyrimidin-4-yl]pyrrolidin-2-one]", "IC50": 78},
      {"smiles": "O=C(C1CCN(c2nccc(N3CCC(F)(F)C3=O)n2)CC1)N1OCC[C@H]1c1cnccn1", "note": "[Example 58, 3,3-difluoro-1-[2-[4-[(3S)-3-pyrazin-2-yl-1,2-oxazolidine-2-carbonyl]piperidin-1-yl]pyrimidin-4-yl]pyrrolidin-2-one]", "IC50": 65},
      {"smiles": "Cc1ncc([C@@H]2CCON2C(=O)C2CCN(c3nccc(N4CCC(C)(C)C4=O)n3)CC2)cc1F", "note": "[Example 60, 1-[2-[4-[(3S)-3-(5-fluoro-6-methylpyridin-3-yl)-1,2-oxazolidine-2-carbonyl]piperidin-1-yl]pyrimidin-4-yl]-3,3-dimethylpyrrolidin-2-one]", "IC50": 506},
      {"smiles": "Cc1ncc([C@@H]2CCON2C(=O)C2CCN(c3nccc(N4CCC5(CC5)C4=O)n3)CC2)cc1F", "note": "[Example 61, 5-[2-[4-[(3S)-3-(5-fluoro-6-methylpyridin-3-yl)-1,2-oxazolidine-2-carbonyl]piperidin-1-yl]pyrimidin-4-yl]-5-azaspiro[2.4]heptan-4-one]", "IC50": 32},
      {"smiles": "CN1CCN(c2ccnc(N3CCC(C(=O)N4OCC[C@H]4c4cncc(F)c4)CC3)n2)C1=O", "note": "[Example 62, 1-[2-[4-[(3S)-3-(5-fluoropyridin-3-yl)-1,2-oxazolidine-2-carbonyl]piperidin-1-yl]pyrimidin-4-yl]-3-methylimidazolidin-2-one]", "IC50": 41},
      {"smiles": "Cc1ccc([C@@H]2CCON2C(=O)[C@@H]2CCN(c3nccc(N4CCOCC4=O)n3)CC23CC3)cn1", "note": "[Example 63, 4-[2-[(8R)-8-[(3S)-3-(6-methylpyridin-3-yl)-1,2-oxazolidine-2-carbonyl]-5-azaspiro[2.5]octan-5-yl]pyrimidin-4-yl]morpholin-3-one]", "IC50": 44},
      {"smiles": "Cc1nccn1-c1nc(N2CCC(C(=O)N3OCC[C@H]3c3cncc(F)c3)CC2)ncc1F", "note": "[Example 64, [1-[5-fluoro-4-(2-methylimidazol-1-yl)pyrimidin-2-yl]piperidin-4-yl]-[(3S)-3-(5-fluoropyridin-3-yl)-1,2-oxazolidin-2-yl]methanone]", "IC50": 1},
      {"smiles": "Cc1ccc([C@@H]2CCON2C(=O)C2CCN(c3nccc(N4CCCC(F)(F)C4=O)n3)CC2)cn1", "note": "[Example 66, 3,3-difluoro-1-[2-[4-[(3S)-3-(6-methylpyridin-3-yl)-1,2-oxazolidine-2-carbonyl]piperidin-1-yl]pyrimidin-4-yl]piperidin-2-one]", "IC50": 3440},
      {"smiles": "Cc1ccc([C@@H]2CCON2C(=O)C2CCN(c3nc(-c4ncco4)ncc3F)CC2)cn1", "note": "[Example 67, [1-[5-fluoro-2-(1,3-oxazol-2-yl)pyrimidin-4-yl]piperidin-4-yl]-[(3S)-3-(6-methylpyridin-3-yl)-1,2-oxazolidin-2-yl]methanone]", "IC50": 135}
    ]}
  ]
}
